Source: publication PMC4809498, “Artonin E Induces Apoptosis via Mitochondrial Dysregulation in SKOV-3 Ovarian Cancer Cells” (PLoS ONE, 2016)
Converted amounts (≈) assume the structure as drawn.

Assays:
[1] = test system: Human periodontal ligament fibroblasts; assay: MTT cell viability assay, periodontal fibroblasts; type: cell-based; conditions: Human periodontal fibroblast, 24 h treatment
Experimental: Metastatic ovarian adenocarcinoma (SKOV-3) and normal Chinese hamster ovary (CHO) cell lines were originally obtained from the American Type Culture Collection (ATCC; Manassas, VA). SKOV-3 cells were cultured in McCoy’s 5A medium and CHO cells were cultured in F12K medium. A human periodontal ligament fibroblast cell line was purchased from Lonza, USA and maintained in stroma cell basal medium. T1074 (normal immortalized human ovarian surface epithelial cell line) was originally purchased from Applied Biological Materials (abm®) Canada and cultured in Prigrow 1 medium.
The inhibitory effects of artonin E and two positive controls paclitaxel and carboplatin were examined by MTT assay. Cells at a density of 5×10^3cells/well were placed in a 96-well plate and left for 24 h to attach. The attached cells were exposed to artonin E, paclitaxel, and carboplatin at different concentrations and incubated for 24, 48, and 72 h. Subsequently, 20 μL of 5 mg/mL MTT solution was added after drug treatment and the resulting mixture was incubated for 4 h to form purple formazan. Afterward, 100 μL of dimethyl sulfoxide (DMSO) was transferred into each well to dissolve the purple formazan, and results were measured using a microplate reader (Tecan Infinite M 200 PRO, Männedorf, Switzerland) at an absorbance of 570 nm. […]

SKOV-3 cells [2] = assay: AO-PI double staining; type: cell-based, human; conditions: SKOV-3, 8 μg/mL, 24, 48, 72 h
Experimental: The effect of artonin E in inducing cell death in SKOV-3 cells was determined using acridine orange (AO) and propidium iodide (PI) double staining. SKOV-3 cells were plated at 5×10^5cells in a T75cm^2 flask and incubated overnight to allow attachment. The cells were then exposed to 8 μg/mL of artonin E for 24, 48, and 72 h. After incubation, the treated cells were washed with PBS, and then trypsinized and centrifuged at 1,500 rpm for 5 min. The cells were then resuspended in cold PBS and centrifuged twice to obtain fresh clean pellets. The fresh pellets were mixed with an equal volume of fluorescent dye staining solution (1:1), comprising 10μg/mL AO and 10 μg/mL PI (dissolved in PBS). The freshly stained cell suspension was dropped onto a glass slide and observed under a UV–fluorescence microscope (Leica attached with Q-Flora Software) within 30 min, prior to fading of the fluorescence.

SKOV-3 cells [3] = assay: Annexin V-FITC/PI flow cytometry; type: cell-based, human; conditions: SKOV-3, 8 μg/mL
Experimental: An Annexin V assay was performed using a BD Pharmingen^TM Annexin V-FITC Apoptosis Detection Kit (ApoAlert Annexin V, Clontech, California, USA). The cells were placed in a 6-well plate and left overnight to attach. Cells were then treated with 8 μg/mL of artonin E for 24, 48, and 72h. The treated cells were trypsinized and centrifuged at 1,500 rpm for 10 min to remove residual media. Subsequently, 1X binding buffer was added to rinse the fresh pellets before their resuspension in 200 μL of binding buffer. The cells were then mixed with 5 μL of Annexin V and 10 μL of PI and incubated for 15 min in the dark at room temperature. The prepared cells were immediately analyzed using flow cytometric analysis (FACS Canto 11 Becton-Dickson). Then, 300 μL of binding buffer was added to each sample to adjust the reaction volume to at least 500 μL for the flow cytometric analysis. The cells treated with DMSO (0.1%, v/v) were used as control.

cytochrome c = assay: Cytochrome c releasing apoptosis assay (Western blot of fractions); type: cell-based, human
Experimental: Cytochrome c releasing apoptosis assay kit (ab65311) was purchased from abcam® (Cambridge, UK). The assay was conducted according to the manufacturer’s instruction. Briefly, SKOV-3 cells were induced with artonin E at different time points. The induced and un-induced cells were collected and centrifuged at […] for 5 minutes at 4°C. The cells were washed twice with 10 mL of ice-cold PBS, centrifuged and collected the pellet. The fresh pellets were then re-suspended with 1.0 mL of 1X cytosol extraction buffer mix containing DTT and Protease Inhibitor and incubated on ice for 10 minutes. Cells were then Dounce-homogenized before centrifuging at 7,000×g for 10 min at 4°C. The supernatant were collected and saved as cytosolic fractions. The remaining pellets were resuspended in 0.1 mL mitochondrial extraction buffer, vortexed for 10 seconds and saved as mitochondrial fractions. Both cytosolic and mitochondrial fractions were applied for protein analysis and proceeded with standard Western blot procedure.
SKOV-3 cells were plated in a 75cm^2 culture flask and exposed to artonin E for 24, 48, and 72 h. […] Protein concentration was determined using a BCA protein assay reagent kit (Bio-Rad, USA). […] The protein bands were detected using pico or femto chemiluminescence (ECL system) and visualized using a UV gel documentation system. […]

caspase-8 = assay: Western blot, caspase-8; type: cell-based, human; conditions: SKOV-3, 8 μg/mL, after 48 and 72 h
Experimental: (§1) SKOV-3 cells were plated in a 75cm^2 culture flask and exposed to artonin E for 24, 48, and 72 h. Lysis buffer (50 mM Tris–HCl, pH 8.0; 120 mM NaCl, 0.5% NP-40; and 1 mM PMSF) was used to extract the total protein. Protein concentration was determined using a BCA protein assay reagent kit (Bio-Rad, USA). Equal amounts of protein (40 μg) extract were subjected to SDS-PAGE and electroblotted onto a polyvinylidenedifluoride membrane (Bio-Rad). Blots were then blocked with 5% non-fat milk in TBS-Tween buffer 7 (0.12 M Tris-base, 1.5 M NaCl, and 0.1% Tween 20) for 1 h at room temperature. After incubating with the appropriate primary antibody overnight at 4°C, the blots were washed and then incubated with horseradish peroxidase conjugated secondary antibody for 1 h at room temperature. The protein bands were detected using pico or femto chemiluminescence (ECL system) and visualized using a UV gel documentation system. The subsequent primary antibodies, which include those for β-actin (1:10,000), Bax (1:10,000), Bcl-2 (1:10,000), HSP-70 (1:10,000), survivin (1:10,000),caspase -3 (1:10,000), caspase -8 (1:10,000), caspase -9 (1;10,000) and cytochrome c (1:200) were purchased from Abcam, Cambridge, United Kingdom.

caspase-9 = assay: Western blot, caspase-9; type: cell-based, human; conditions: SKOV-3, 8 μg/mL, as early as 24 h
Experimental: as §1

Bcl-2 = assay: Western blot, Bcl-2; type: cell-based, human; conditions: SKOV-3, 8 μg/mL
Experimental: as §1

HSP70 = assay: Western blot, HSP70; type: cell-based, human; conditions: SKOV-3, 8 μg/mL, 72 h after treatment
Experimental: as §1

survivin = assay: Western blot, survivin; type: cell-based, human; conditions: SKOV-3, 8 μg/mL, 72 h after treatment
Experimental: as §1

[4] = target: arachidonate 5-lipoxygenase; parameters: method as in PMID 14559276; conditions: read-out: IC50 value, arachidonate 5-lipoxygenase inhibition; cited from earlier work

CC(C)=CCc1c(-c2cc(O)c(O)cc2O)oc2c3c(cc(O)c2c1=O)OC(C)(C)C=C3 [Artonin E, artonin E]
IC50 [1]: 67 ± 1 µg/mL (≈ 154 µM)
induction of apoptosis (AO-PI scoring) vs untreated cells (SKOV-3 cells [2]): statistically significant (p<0.05) difference
cells at the early stage of apoptosis (SKOV-3 cells [3]; 24 h post treatment): more than 40%
cells at the late stage of apoptosis (SKOV-3 cells [3]; 48 h post treatment): more than 40%
expression level of cytochrome c in cytosolic fraction (cytochrome c; SKOV-3, 8 μg/mL, 24, 48, 72 h): increase
expression level of cytochrome c in mitochondrial fraction (cytochrome c; SKOV-3, 8 μg/mL, time-dependent (24, 48, 72 h)): significantly (p<0.05) decreased
protein expression level of caspase-8 (caspase-8): up-regulated
protein expression level of caspase-9 (caspase-9): significantly (p<0.05) up-regulated
Bcl-2 level (Bcl-2; 24 h post treatment): significantly lower
Bcl-2 level (Bcl-2; after 48 h and 72 h): almost diminished
level of HSP70 expression (HSP70): reduced significantly
level of survivin expression (survivin): reduced significantly
IC50 [4]: 360 nM
